Patent US9434719B2, “3-pyrimidin-4-yl-oxazolidin-2-ones as inhibitors of mutant IDH” (NOVARTIS AG, priority 2013, dated 2016)
Where a name gives a salt, the structure may show the parent alone.

Key:
Format in all cases: in vitro ADME
[1] = Metabolic stability in liver microsomes, Method I, mouse; conditions: for microsomal CLint: 1 μM test compound; for microsomal CLint at 1 μM: male, CD-1, 1 μM test compound
Method: (§10) The in vitro metabolic stability assay was performed in a 96-well glass plate with shaking incubation at 37° C. A 10 mM DMSO stock solution of the test compound was sequentially diluted 1:1000 to yield a final reaction concentration of 1 μM in 50 mM KPi. […] 30 μL of the 10 μM solution containing the test compound was added to 120 μL of microsomal protein for 150 μL enzyme-compound mixture. The reaction was initiated by adding 150 μL of cofactor solution (2 mM NADPH, 4 mM MgCl in 50 mM KPi) to the enzyme-compound mixture, and the final reaction concentrations are listed in the table below.
(§11) At 0, 5, 10 and 30 minute time points in the reaction, reaction aliquots (50 μL) were removed and the reactions were terminated by the addition of acetonitrile (150 μL) containing a mass spectrometry internal standard (1 μM glyburide). The samples were centrifuged and the supernatants analyzed by LC-MS/MS for quantization of remaining compound.
(§12) Analysis of the samples was performed on a high performance liquid chromatography-tandem mass spectrometry (LC/MS) system consisting of a Thermo TSQ Quantum Ultra mass spectrometer, an H-ESI ion source, a CTC-HTS Pal autosampler, and an Agilent LC Pump.
(§13) Mobile phase A consisted of purified water containing 0.01% formic acid. Mobile phase B consisted of acetonitrile containing 0.01% formic acid. The flow rate was 1 mL/min. The injection volume was 10 μL. Compounds were detected using the Thermo QuikQuan software which collects intensity data for all fragments related to the molecular weight of the test compound. After collection of the raw data, the software identifies and integrates the peak of the strongest intensity.
(§14) Each microsomal elimination rate, kmic, was based on a 4-point elimination curve tested in singlet. LC-MS/MS raw data for a reaction plate was returned as integrated analyte peak areas for the test compound and internal standard used in the quench solution for the reaction to enable use of analyte:internal standard peak area ratios (PARs) for all data comparisons. The reaction time point (e.g. 0, 5, 20 or 30 minutes) was plotted versus the natural logarithm of percent test compound remaining relative to 0 minutes (based on relative PAR).

[2] = Metabolic stability in liver microsomes, Method I, human; conditions: 1 μM test compound; for microsomal CLint at 1 μM: pooled liver microsomes
Method: as §10, §11, §12, §13, §14

[3] = Metabolic stability in liver microsomes, Method I, rat; conditions: 1 μM test compound; for microsomal CLint / microsomal CLint at 1 μM: rat; for microsomal CLint: microsomes; for microsomal CLint at 1 μM: male, Sprague-Dawley, liver microsomes
Method: as §10, §11, §12, §13, §14

[4] = Metabolic stability in liver microsomes, Method II, rat; conditions: 1 μM test compound, NADPH + UDPGA; for microsomal CLint at 1 μM: male, Sprague-Dawley
Method: The in vitro metabolic stability assay was performed in a 96-deep-well plate with incubation at 37° C. 10 mM DMSO stock solution of the test compound was diluted 1:20 in acetonitrile, followed by an additional 1:10 dilution in 100 mM potassium phosphate buffer (KPi) to yield a final reaction concentration of 1 μM. […] 290 μL of cofactor solution (1.7 mM NADPH, 1.7 mM UDPGA, 3.4 mM MgCl in 100 mM KPi) was added to 200 μL of microsomal protein for a final volume of 490 μL. The reaction was initiated by adding 10 μL of the 50 μM test solution to 490 μL of microsomal protein for a final volume 500 μL enzyme-compound mixture.
UPLC mobile phase A: 0.25% formic acid in 5% methanol; mobile phase B: 0.25% formic acid in 95% water.

[5] = Metabolic stability in liver microsomes, Method II, mouse; conditions: 1 μM test compound, NADPH + UDPGA
Method: (§1) Determination of Metabolic Stability in Liver Microsomes—Method II
(§2) The in vitro metabolic stability assay was performed in a 96-deep-well plate with incubation at 37° C. 10 mM DMSO stock solution of the test compound was diluted 1:20 in acetonitrile, followed by an additional 1:10 dilution in 100 mM potassium phosphate buffer (KPi) to yield a final reaction concentration of 1 μM. Immediately prior to the start of the experiment, respective animal or human liver microsomes (male Sprague-dawley rat, male CD-1 mouse, or pooled human liver microsomes) were diluted in 100 mM KPi to 1.25 mg/mL liver microsomal protein. 290 μL of cofactor solution (1.7 mM NADPH, 1.7 mM UDPGA, 3.4 mM MgCl in 100 mM KPi) was added to 200 μL of microsomal protein for a final volume of 490 μL. The reaction was initiated by adding 10 μL of the 50 μM test solution to 490 μL of microsomal protein for a final volume 500 μL enzyme-compound mixture.
(§3) At 0, 5, 15 and 30 minute time points in the reaction, reaction aliquots (75 μL) were removed and the reactions were terminated by the addition of 50:50 acetonitrile/methanol solution (75 μL) containing a mass spectrometry internal standard (0.5 μM glyburide). The samples were centrifuged at 4000 RPM for 10 minutes. Supernatants (15 μL aliquots) were transferred to a new plate where each well contains 90 μL of deionized water. The supernatants solution were analyzed by UPLC/MS/MS for quantitation of parent remaining compound under multiple reactions monitoring mode (MRM) in positive mode. The percentage of compound remaining, relative to 0 minutes, was used to estimate in vitro elimination-rate constant (k) which was used to calculate in vitro metabolic clearance rates.
(§4) Analysis of the samples was performed on an ultra-performance liquid chromatography-tandem mass spectrometry (UPLC/MS/MS) system consisting of an AB Sciex Qtrap 5500 mass spectrometer, AB Sciex Turbo V ion source, Waters Acquity Sample Organizer, Waters Acquity Column manager, Waters Acquity Sample manager, and a Waters Acquity Binary Solvent Manager. Chromatographic separation of analyte and internal standard was achieved using a reverse phase C-18 column (50×2.1 mm, 1.7 μm, Acquity UPLC BEH C-18) with the following UPLC mobile phases and elution gradient: […]
(§5) UPLC mobile phase A: 0.25% formic acid in 5% methanol; mobile phase B: 0.25% formic acid in […].
(§6) The injection volume was 5 μL. Compounds were detected using Analyst 1.5.1 software which collects intensity data for all fragments related to the molecular weight of the test compound. After collection of the raw data, the software identifies and integrates the peak of the strongest intensity.
(§7) Each microsomal elimination rate, k, was based on a 4-point elimination curve tested in duplicates. LC-MS/MS raw data for a reaction plate was returned as integrated analyte peak areas for the test compound and internal standard used in the quench solution for the reaction to enable use of analyte:internal standard peak area ratios (PARs) for all data comparisons. The reaction time point (e.g. 0, 5, 15 and 30 minutes) was plotted versus the natural logarithm of percent test compound remaining relative to 0 minutes (based on relative PAR). The slope of this clearance plot, k, was used to calculate the in vitro half-life.
(§8) [formula] The intrinsic clearance value, CLint (expressed as μL/min/mg microsomal protein) calculation is shown below:
(§9) [formula] Where V=the incubation volume (mL) and M=the microsomal protein content in the incubation (mg)

[6] = Metabolic stability in liver microsomes, Method II, human; conditions: 1 μM test compound, NADPH + UDPGA
Method: as §1, §2, §3, §4, §5, §6, §7, §8, §9

SMILES | microsomal CLint at 1 μM [1] | microsomal CLint at 1 μM [2] | microsomal CLint at 1 μM [3] | other results
C[C@H](Nc1nccc(N2C(=O)OC[C@@H]2CF)n1)c1cn(-c2ccc(C(F)F)c(F)c2)cn1 [475 as TFA salt] |  |  |  | microsomal CLint [1]: 15.7 µL/min/mg; microsomal CLint [2]: < 7.7 µL/min/mg; microsomal CLint [3]: 54 µL/min/mg; microsomal CLint [4]: 16.2 µL/min/mg
C[C@H](Nc1nccc(N2C(=O)OC[C@@H]2[C@@H](C)N)n1)c1cnc(-c2ccc(Cl)cc2)s1 [Example 380, (S)-4-((R)-1-aminoethyl)-3-(2-(((S)-1-(2-(4-chlorophenyl)thiazol-5-yl)ethyl)amino)pyrimidin-4-yl)oxazolidin-2-one] | 51 µL/min/mg | 31.1 µL/min/mg | 42.9 µL/min/mg | microsomal CLint at 1 μM [4]: 30.2 µL/min/mg
Cc1cc([C@H](C)Nc2ncc(F)c(N3C(=O)OC[C@@H]3[C@H](C)F)n2)ncc1-c1ccnc(C(F)(F)F)c1 [Example 470, (R)-3-(5-fluoro-2-(((S)-1-(4-methyl-2′-(trifluoromethyl)-[3,4′-bipyridin]-6-yl)ethyl)amino)pyrimidin-4-yl)-4-((S)-1-fluoroethyl)oxazolidin-2-one] | 47.3 µL/min/mg | 83.6 µL/min/mg | 52.8 µL/min/mg | 
CC(Nc1nccc(N2C(=O)OC[C@@H]2[C@@H](C)O)n1)c1nc(-c2ccc(OC(F)(F)F)cc2)no1 (single isomer, unassigned) [Example 181] |  |  | 56.6 µL/min/mg | 
C[C@H](Nc1ncc(F)c(N2C(=O)OC[C@@H]2[C@H](C)F)n1)c1cn(-c2ccc(F)cc2F)cn1 [479 as TFA salt] |  |  |  | microsomal CLint [5]: 116 µL/min/mg; microsomal CLint [4]: 173 µL/min/mg; microsomal CLint [6]: 11.9 µL/min/mg
Cc1cc(-c2ccnc(C(F)(F)F)c2)cnc1[C@H](C)Nc1nccc(N2C(=O)OC[C@@H]2[C@@H](C)O)n1 [Example 61, (R)-4-((R)-1-hydroxyethyl)-3-(2-(((S)-1-(5-methyl-2′-(trifluoromethyl)-[3,4′-bipyridin]-6-yl)ethyl)amino)pyrimidin-4-yl)oxazolidin-2-one] | 67.7 µL/min/mg | 66.4 µL/min/mg | 34.6 µL/min/mg | 
C[C@H](Nc1ncc(F)c(N2C(=O)OC[C@@H]2CF)n1)c1cn(-c2ccc(C(F)F)cc2)cn1 [434 as TFA salt] |  |  |  | microsomal CLint [1]: 10.7 µL/min/mg; microsomal CLint [2]: < 7.7 µL/min/mg; microsomal CLint [3]: 41 µL/min/mg; microsomal CLint [4]: 10.8 µL/min/mg
Cc1cc(-c2cnc([C@H](C)Nc3nccc(N4C(=O)OC[C@@H]4[C@H](C)F)n3)nc2)ccc1F [Example 469, (R)-3-(2-(((S)-1-(5-(4-fluoro-3-methylphenyl)pyrimidin-2-yl)ethyl)amino)pyrimidin-4-yl)-4-((S)-1-fluoroethyl)oxazolidin-2-one] |  |  | 132 µL/min/mg | 
C[C@H](Nc1nccc(N2C(=O)OC[C@@H]2CF)n1)c1cn(-c2ccc(F)c(F)c2)cn1 [474 as TFA salt] |  |  |  | microsomal CLint [5]: < 7.7 µL/min/mg; microsomal CLint [4]: 24.8 µL/min/mg; microsomal CLint [6]: < 7.7 µL/min/mg
C[C@H](Nc1nccc(N2C(=O)OC[C@@H]2[C@H](C)F)n1)c1ncc(-c2cccc(C(F)(F)F)c2F)cn1 [Example 467, (R)-3-(2-(((S)-1-(5-(2-fluoro-3-(trifluoromethyl)phenyl)pyrimidin-2-yl)ethyl)amino)pyrimidin-4-yl)-4-((S)-1-fluoroethyl)oxazolidin-2-one] | 275 µL/min/mg | 53.3 µL/min/mg | 75.6 µL/min/mg | microsomal CLint at 1 μM [4]: 85.4 µL/min/mg
C[C@H](Nc1nccc(N2C(=O)OC[C@@H]2CF)n1)c1cn(-c2ccc(Cl)cc2)cn1 [Example 404, (R)-3-(2-(((S)-1-(1-(4-chlorophenyl)-1H-imidazol-4-yl)ethyl)amino)pyrimidin-4-yl)-4-(fluoromethyl)oxazolidin-2-one] | 18.7 µL/min/mg | < 7.7 µL/min/mg | 44.6 µL/min/mg | microsomal CLint at 1 μM [4]: 75.4 µL/min/mg
C[C@H](Nc1nccc(N2C(=O)OC[C@@H]2[C@H](C)F)n1)c1ccc(-c2ccnc(C(F)(F)F)c2)cn1 [Example 468, (R)-4-((S)-1-fluoroethyl)-3-(2-(((S)-1-(2′-(trifluoromethyl)-[3,4′-bipyridin]-6-yl)ethyl)amino)pyrimidin-4-yl)oxazolidin-2-one] | 28.9 µL/min/mg | 70.1 µL/min/mg | 30.5 µL/min/mg | 
C[C@H](Nc1nccc(N2C(=O)OC[C@@H]2[C@H](C)F)n1)c1cn(-c2ccc(F)cc2)cn1 [Example 401, (R)-4-((S)-1-fluoroethyl)-3-(2-(((S)-1-(1-(4-fluorophenyl)-1H-imidazol-4-yl)ethyl)amino)pyrimidin-4-yl)oxazolidin-2-one] | 33.1 µL/min/mg | < 7.7 µL/min/mg | 30.4 µL/min/mg | microsomal CLint at 1 μM [4]: 92.4 µL/min/mg
C[C@H](Nc1nccc(N2C(=O)OC[C@@H]2CF)n1)c1cn(-c2ccc(Cl)c(F)c2)cn1 [473 as TFA salt] |  |  |  | microsomal CLint [1]: 17.7 µL/min/mg; microsomal CLint [2]: < 7.7 µL/min/mg; microsomal CLint [3]: 72.5 µL/min/mg; microsomal CLint [4]: 33.3 µL/min/mg
C[C@H](Nc1nccc(N2C(=O)OC[C@@H]2[C@@H](C)O)n1)c1ccc(-c2ccnc(C(F)(F)F)c2)cn1 [Example 55, (R)-4-((R)-1-hydroxyethyl)-3-(2-(((S)-1-(2′-(trifluoromethyl)-[3,4′-bipyridin]-6-yl)ethyl)amino)pyrimidin-4-yl)oxazolidin-2-one] | 63.1 µL/min/mg |  | 58.4 µL/min/mg | 
CC(Nc1nccc(N2C(=O)OC[C@@H]2[C@@H](C)O)n1)c1nc(-c2ccc3c(c2)OC(F)(F)O3)no1 (single isomer, unassigned) [Example 169] |  |  | 68.8 µL/min/mg | Rat microsomal stability CLint [3]: 60.93 µL/min/mg
Cc1ccc(-c2noc(C(C)Nc3ncc(F)c(N4C(=O)OC[C@@H]4[C@@H](C)O)n3)n2)cc1F (single isomer, unassigned) [Example 122] |  |  | 69.4 µL/min/mg | 
C[C@H](Nc1ncc(F)c(N2C(=O)OC[C@@H]2CF)n1)c1ncc(-c2ccc(Cl)cc2)o1 [Example 480, (R)-3-(2-(((S)-1-(5-(4-chlorophenyl)oxazol-2-yl)ethyl)amino)-5-fluoropyrimidin-4-yl)-4-(fluoromethyl)oxazolidin-2-one] | 51.5 µL/min/mg | 35.6 µL/min/mg | 65.2 µL/min/mg | 
C[C@H](Nc1nccc(N2C(=O)OC[C@@H]2[C@H](C)F)n1)c1cn(-c2ccc(C(F)F)cc2)cn1 [456 as TFA salt] |  |  |  | microsomal CLint [2]: 16.8 µL/min/mg; microsomal CLint [3]: 44.7 µL/min/mg
C[C@H](Nc1nccc(N2C(=O)OC[C@@H]2[C@H](C)F)n1)c1ncc(-c2ccnc(C(F)(F)F)c2)cc1F [Example 463, (R)-3-(2-(((S)-1-(5-fluoro-2′-(trifluoromethyl)-[3,4′-bipyridin]-6-yl)ethyl)amino)pyrimidin-4-yl)-4-((S)-1-fluoroethyl)oxazolidin-2-one] | 35.5 µL/min/mg | 28.3 µL/min/mg | 50.8 µL/min/mg | microsomal CLint at 1 μM [4]: 49.8 µL/min/mg
CC(Nc1nccc(N2C(=O)OC[C@@H]2[C@@H](C)O)n1)c1nc(-c2ccc(C(F)(F)F)cc2)no1 (single isomer, unassigned) [Example 174] |  |  | 48.5 µL/min/mg | 
CC(Nc1nccc(N2C(=O)OC[C@@H]2[C@@H](C)O)n1)c1nc(-c2ccc(C(F)(F)F)cc2)no1 (single isomer, unassigned) [Example 175] | 56.3 µL/min/mg | 39.8 µL/min/mg |  | Rat microsomal stability CLint [3]: 50.51 µL/min/mg
C[C@H](Nc1nccc(N2C(=O)OC[C@@H]2[C@H](C)O)n1)c1ccc(CN2CCN(C)C(C)(C)C2)c(F)c1 [Example 48, (R)-3-(2-((S)-1-(3-fluoro-4-((3,3,4-trimethylpiperazin-1-yl)methyl)phenyl)ethylamino)pyrimidin-4-yl)-4-((S)-1-hydroxyethyl)oxazolidin-2-one] | 173 µL/min/mg | 121 µL/min/mg | 49.1 µL/min/mg | 
